# Test results reported in ChEMBL document CHEMBL1147370, “Selligueain A, a novel highly sweet proanthocyanidin from the rhizomes of Selliguea feei” (J Nat Prod, 1993).
# Columns and labels:
# [1] = system: Mus musculus; test: Acute toxicity in Swiss-Webster mouse at 1 g/kg, po; assay type: organism-based; details: in vivo, 1000 mg/kg
# [2] = system: Mus musculus; test: Acute toxicity in Swiss-Webster mouse at 2 g/kg, po; assay type: organism-based; details: in vivo, 2000 mg/kg
smiles,measurement,setting,value
Oc1ccc([C@H]2Oc3c(c(O)cc4c3[C@H]3c5c(O)cc(O)cc5O[C@@](c5ccc(O)cc5)(O4)[C@@H]3O)[C@H](c3c(O)cc(O)c4c3O[C@H](c3ccc(O)cc3)[C@@H](O)C4)[C@H]2O)cc1 [SELLIGUEAIN A],Activity,[1],Non-toxic
same,Activity,[2],Non-toxic
